The values below are quoted from earlier work in patent US8492081B2, “Aldehyde-fixed, dried platelets with covalently attached exogenous active agent and method of making thereof” (The University of North Carolina at Chapel Hill, priority 2003, dated 2013).

In one data set the test system is Punta Toro virus. Conditions: free ribavirin, not loaded on platelets; previously shown.
For data set [1] the following is noted: Crotty et al., 2002.

In the case of `NC(=O)c1ncn([C@@H]2O[C@H](CO)[C@@H](O)[C@H]2O)n1` [ribavirin], in the data set with Punta Toro virus, the “concentration range shown to inhibit Punta Toro virus replication in vitro” value is on record as 4-10 micrograms per ml. The “concentration range that exhibits antiviral activity in tissue culture” value in data set [1] is 10 to 100 µM.
